{"source": "ChEMBL document CHEMBL3046763", "about": "(J Pestic Sci, 2000)", "key": {"[1]": {"experiment": "Acute toxicity in po dosed Mus musculus ddY (mouse)", "type": "organism-based", "settings": "in vivo, read-out: LC50 (the source's name)"}, "Spodoptera litura [2]": {"system": "Spodoptera litura", "experiment": "Insecticidal activity against Spodoptera litura assessed as mortality at 50 ppm by filter paper method", "type": "functional"}, "Spodoptera litura [3]": {"system": "Spodoptera litura", "experiment": "Insecticidal activity against Spodoptera litura assessed as mortality by filter paper method", "type": "functional"}, "Delphacodes [4]": {"system": "Delphacodes", "experiment": "Insecticidal activity against Delphacodes striatellus assessed as mortality at 50 ppm by test tube method", "type": "functional"}, "Delphacodes [5]": {"system": "Delphacodes", "experiment": "Insecticidal activity against Delphacodes striatellus assessed as mortality at 10 ppm by test tube method", "type": "functional"}}}
{"smiles": "CCOC(=O)CC(SP(=S)(OC)OC)C(=O)OCC", "note": "(stereo not given) [MALATHION]", "values": [{"measurement": "LD50", "setting": "[1]", "result": 347, "unit": "mg/kg"}, {"measurement": "mortality at 50 ppm", "setting": "Spodoptera litura [2]", "result": 100, "unit": "%"}, {"measurement": "LC50", "setting": "Spodoptera litura [3]", "result": 8.3, "unit": "µg/mL"}, {"measurement": "mortality at 50 ppm", "setting": "Delphacodes [4]", "result": 100, "unit": "%"}, {"measurement": "mortality at 10 ppm", "setting": "Delphacodes [5]", "result": 77, "unit": "%"}]}
